# Data reported in patent US8563714B2, “Bridged spiro [2.4] heptane derivatives as ALX receptor and/or FPRL2 agonists” (Actelion Pharmaceuticals Ltd., priority 2009, dated 2013).
# pEC50: −log10 of the molar value.
# Columns and labels:
# [1] = target: T1, human ALX receptor (Homo sapiens, UniProt P25090); test: Intracellular calcium measurements (FLIPR), agonistic activity in HEK293-hALXR-Gα16 cells; type: cell-based; conditions: Fluo-4 calcium FLIPR, normalized to WKYMVm 10 nM
# T1 construct: expressed in transfected cells; host or cells: HEK293 (HEK293-hALXR-Gα16)
# T1 sequence (P25090 1-351): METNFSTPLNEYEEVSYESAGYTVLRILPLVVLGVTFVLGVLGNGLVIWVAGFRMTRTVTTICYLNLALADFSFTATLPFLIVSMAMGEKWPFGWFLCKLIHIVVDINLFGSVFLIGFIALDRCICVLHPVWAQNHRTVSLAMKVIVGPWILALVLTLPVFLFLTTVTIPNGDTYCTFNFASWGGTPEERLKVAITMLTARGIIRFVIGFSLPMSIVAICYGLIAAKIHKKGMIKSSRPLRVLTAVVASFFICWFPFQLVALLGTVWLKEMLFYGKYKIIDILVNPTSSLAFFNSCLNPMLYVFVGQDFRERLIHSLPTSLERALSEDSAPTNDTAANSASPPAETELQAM
# Experimental: (§1) The ALX receptor and FPRL2 agonistic activities of the compounds of formula (I) are determined in accordance with the following experimental method.
# (§2) Intracellular Calcium Measurements:
# Cells expressing recombinant human ALX receptor and the G-protein Gα16 (HEK293-hALXR-Gα16) were grown to 80% confluency in Growing Medium (GM). Cells were detached from culture dishes with a cell dissociation buffer (Invitrogen, 13151-014), and collected by centrifugation at 1,000 rpm at rt for 5 min in Assay Buffer (AB) (equal parts of Hank's BSS (Gibco, 14065-049) and DMEM without Phenol Red (Gibco, 11880-028)). After 60 min incubation at 37° C. under 5% CO2 in AB supplemented with 1 μM Fluo-4 (AM) (Invitrogen, F14202), and 20 mM HEPES (Gibco, 15630-056), the cells were washed and resuspended in AB. They were then seeded onto 384-well FLIPR assay plates (Greiner, 781091) at 50′000 cells in 70 μl per well and sedimented by centrifugation at 1,000 rpm for 1 min. Stock solutions of test compounds were made up at a concentration of 10 mM in DMSO, and serially diluted in AB to concentrations required for activation dose response curves. WKYMVm (Phoenix Peptides) was used as a reference agonist. FLIPR384 or FLIPR Tetra instruments (Molecular Devices) were operated according to the manufacturer's standard instructions, adding 4 μl of test compound dissolved at 10 mM in DMSO and diluted prior to the experiment in assay buffer to obtain the desired final concentration. Changes in fluorescence were monitored before and after the addition of test compounds at lex=488 nm and lem=540 nm. Emission peak values above base level after compounds addition were exported after base line subtraction. Values were normalized to high-level control (WKYMVm compound, 10 nM final concentration) after subtraction of the base line value (AB addition).
# [2] = target: T2, human FPRL2 (Homo sapiens, UniProt P25089); test: Intracellular calcium measurements (FLIPR), agonistic activity in HEK293-hFPRL2-Gα16 cells; type: cell-based; conditions: Fluo-4 calcium FLIPR, normalized to GLY14-Humanin 100 nM
# T2 construct: expressed in transfected cells; host or cells: HEK293 (HEK293-hFPRL2-Gα16)
# T2 sequence (P25089 1-353): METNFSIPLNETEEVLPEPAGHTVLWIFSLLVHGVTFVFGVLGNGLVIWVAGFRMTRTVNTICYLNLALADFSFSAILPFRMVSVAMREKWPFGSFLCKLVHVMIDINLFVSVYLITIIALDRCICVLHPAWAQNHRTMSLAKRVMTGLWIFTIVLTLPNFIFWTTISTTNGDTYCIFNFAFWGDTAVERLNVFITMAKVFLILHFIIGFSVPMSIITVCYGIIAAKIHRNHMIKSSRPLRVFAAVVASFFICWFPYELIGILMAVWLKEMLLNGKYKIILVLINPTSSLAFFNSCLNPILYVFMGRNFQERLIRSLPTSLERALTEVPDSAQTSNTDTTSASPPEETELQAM
# Experimental: as §1, §2
# Cells expressing recombinant human FPRL2 and the G-protein Gα16 (HEK293-hFPRL2-Gα16) were grown to 80% confluency in Growing Medium (GM). […] Stock solutions of test compounds were made up at a concentration of 10 mM in DMSO, and serially diluted in AB to concentrations required for activation dose response curves. Gly14-Humanin (Humanin peptide with replacement of Serine by Glycine at position 14, Phoenix Peptides) was used as a reference agonist. FLIPR384 or FLIPR Tetra instruments (Molecular Devices) were operated according to the manufacturer's standard instructions, adding 4 μl of test compound dissolved at 10 mM in DMSO and diluted prior to the experiment in assay buffer to obtain the desired final concentration. Changes in fluorescence were monitored before and after the addition of test compounds at lex=488 nm and lem=540 nm. Emission peak values above base level after compounds addition were exported after base line subtraction. Values were normalized to high-level control (GLY14-Humanin compound, 100 nM final concentration) after subtraction of the base line value (AB addition).
Compound,pEC50 [1],pEC50 [2]
"O=C(NCCCN1CCCC1)[C@H]1[C@H](C(=O)Nc2ccc(Br)cc2)[C@@H]2C=C[C@H]1C21CC1 (racemic) [Example 30, (5R*)—N^5-(4-Bromophenyl)-(6R*)—N^6-(3-pyrrolidin-1-yl-propyl)-(4S*,7R*)-[4,7-ethenylene-spiro[2.4]heptane]-5,6-dicarboxamide]",8.31,6.39
"COCCN(CCOC)C(=O)C1C(C(=O)Nc2ccc(Br)cc2)C2C=CC1C21CC1 (racemic) [Example 35, (5R*)—N^5-(4-Bromophenyl)-(6R*)—N^6,N^6-bis-(2-methoxy-ethyl)-(4S*,7R*)-[4,7-ethenylene-spiro[2.4]heptane]-5,6-dicarboxamide]",8.21,5.73
"CCN(CC)CCN(CC)C(=O)[C@H]1[C@H](C(=O)Nc2ccc(Br)cc2)[C@@H]2C=C[C@H]1C21CC1 (racemic) [Example 39, (5R*)—N^5-(4-Bromophenyl)-(6R*)—N^6-ethyl-N^6-(2-diethylamino-ethyl)-(4S*,7R*)-[4,7-ethenylene-spiro[2.4]heptane]-5,6-dicarboxamide]",8.12,5.81
"O=C(NCCCn1ccnc1)[C@H]1[C@H](C(=O)Nc2ccc(Br)cc2)[C@@H]2C=C[C@H]1C21CC1 (racemic) [Example 40, (5R*)—N^5-(4-Bromophenyl)-(6R*)—N^6-(3-1H-imidazol-1-yl-propyl)-(4S*,7R*)-[4,7-ethenylene-spiro[2.4]heptane]-5,6-dicarboxamide]",8.05,6.07
"O=C(NCCCCO)[C@H]1[C@H](C(=O)Nc2ccc(Br)cc2)[C@@H]2C=C[C@H]1C21CC1 (racemic) [Example 42, (5R*)—N^5-(4-Bromophenyl)-(6R*)—N^6-(4-hydroxy-butyl)-(4S*,7R*)-[4,7-ethenylene-spiro[2.4]heptane]-5,6-dicarboxamide]",8.02,5.11
"CC(C)(C)OC(=O)NCCCCNC(=O)[C@H]1[C@H](C(=O)Nc2ccc(Br)cc2)[C@@H]2C=C[C@H]1C21CC1 (racemic) [Example 46, (5R*)—N^5-(4-Bromophenyl)-(6R*)—N^6-(4-tert-butoxycarbonyl-amino-butyl)-(4S*,7R*)-[4,7-ethenylene-spiro[2.4]heptane]-5,6-dicarboxamide]",7.96,5.80
"CN(CCNC(=O)[C@H]1[C@H](C(=O)Nc2ccc(Br)cc2)[C@@H]2C=C[C@H]1C21CC1)C(=O)OC(C)(C)C (racemic) [Example 47, (5R*)—N^5-(4-Bromophenyl)-(6R*)—N^6-(2-(methyl-tert-butoxycarbonyl-amino)-ethyl)-(4S*,7R*)-[4,7-ethenylene-spiro[2.4]heptane]-5,6-dicarboxamide]",7.92,5.93

# More lines, now with the values ahead:
pEC50 [1],pEC50 [2],Compound
8.43,5.39,"CCSCCNC(=O)[C@H]1[C@H](C(=O)Nc2ccc(Br)cc2)[C@@H]2C=C[C@H]1C21CC1 (racemic) [Example 24, (5R*)—N^5-(4-Bromophenyl)-(6R*)—N^6-(2-ethylsulfanyl-ethyl)-(4S*,7R*)-[4,7-ethenylene-spiro[2.4]heptane]-5,6-dicarboxamide]"
8.32,5.25,"O=C(NCCN1CCNC1=O)[C@H]1[C@H](C(=O)Nc2ccc(Br)cc2)[C@@H]2C=C[C@H]1C21CC1 (racemic) [Example 29, (5R*)—N^5-(4-Bromophenyl)-(6R*)—N^6-(2-imidazolidin-2-on-1-yl-ethyl)-(4S*,7R*)-[4,7-ethenylene-spiro[2.4]heptane]-5,6-dicarboxamide]"
8.27,5.48,"O=C(NCCCc1nc2ccccc2[nH]1)[C@H]1[C@H](C(=O)Nc2ccc(Br)cc2)[C@@H]2C=C[C@H]1C21CC1 (racemic) [Example 32, (5R*)—N^5-(4-Bromophenyl)-(6R*)—N^6-(3-(1H-benzoimidazol-2-yl)-propyl)-(4S*,7R*)-[4,7-ethenylene-spiro[2.4]heptane]-5,6-dicarboxamide]"
8.21,4.79,"O=C(NCCO)[C@H]1[C@H](C(=O)Nc2ccc(Br)cc2)[C@@H]2C=C[C@H]1C21CC1 (racemic) [Example 34, (5R*)—N^5-(4-Bromophenyl)-(6R*)—N^6-(2-hydroxy-ethyl)-(4S*,7R*)-[4,7-ethenylene-spiro[2.4]heptane]-5,6-dicarboxamide]"
8.17,4.94,"N#CCNC(=O)[C@H]1[C@H](C(=O)Nc2ccc(Br)cc2)[C@@H]2C=C[C@H]1C21CC1 (racemic) [Example 36, (5R*)—N^5-(4-Bromophenyl)-(6R*)—N^6-(cyano-methyl)-(4S*,7R*)-[4,7-ethenylene-spiro[2.4]heptane]-5,6-dicarboxamide]"
8.15,5.77,"O=C(NCCCn1cccn1)[C@H]1[C@H](C(=O)Nc2ccc(Br)cc2)[C@@H]2C=C[C@H]1C21CC1 (racemic) [Example 37, (5R*)—N^5-(4-Bromophenyl)-(6R*)—N^6-(3-1H-pyrazol-1-yl-propyl)-(4S*,7R*)-[4,7-ethenylene-spiro[2.4]heptane]-5,6-dicarboxamide]"
8.12,5.81,"NCc1ccc(CNC(=O)[C@H]2[C@H](C(=O)Nc3ccc(Br)cc3)[C@@H]3C=C[C@H]2C32CC2)cc1 (racemic) [Example 38, (5R*)—N^5-(4-Bromophenyl)-(6R*)—N^6-[(4-aminomethyl-phenyl)-methyl]-(4S*,7R*)-[4,7-ethenylene-spiro[2.4]heptane]-5,6-dicarboxamide]"
8.02,6.03,"CN1CCN(CCCNC(=O)[C@H]2[C@H](C(=O)Nc3ccc(Br)cc3)[C@@H]3C=C[C@H]2C32CC2)CC1 (racemic) [Example 43, (5R*)—N^5-(4-Bromophenyl)-(6R*)—N^6-(3-(4-methyl-piperazin-1-yl)-propyl)-(4S*,7R*)-[4,7-ethenylene-spiro[2.4]heptane]-5,6-dicarboxamide]"
8.00,5.31,"NCCNC(=O)[C@H]1[C@H](C(=O)Nc2ccc(Br)cc2)[C@@H]2C=C[C@H]1C21CC1 (racemic) [Example 44, (5R*)—N^5-(4-Bromophenyl)-(6R*)—N^6-(2-amino-ethyl)-(4S*,7R*)-[4,7-ethenylene-spiro[2.4]heptane]-5,6-dicarboxamide]"
7.96,5.38,"CN(C)CCN(C)C(=O)[C@H]1[C@H](C(=O)Nc2ccc(Br)cc2)[C@@H]2C=C[C@H]1C21CC1 (racemic) [Example 45, (5R*)—N^5-(4-Bromophenyl)-(6R*)—N^6-methyl-N^6-(2-dimethylamino-ethyl)-(4S*,7R*)-[4,7-ethenylene-spiro[2.4]heptane]-5,6-dicarboxamide]"
